Data taken from patent US20070225213A1, “Nucleic acid carriers for delivery of therapeutic agents” (priority 2006, published 2007).

How the values were obtained:
human MCF-7 cells = test: Visually scored toxicity of NAC-MTN / NAC-DOX at fixed loading (Example 3); assay type: cell-based; conditions: 5.6 ug/ml final drug; 5.1% drug loading; 16 hour incubation
Procedure: Toxicity of NAC-MTN or NAC-DOX, at 50, 16.9, 5.6, and 1.9 ug/ml final drug concentration and 5.1 % drug loading in human MCF-7 cells. Sample A: 15 mg of HSDNA (EX031804A) was combined with 0.76 mg MTN(mw 517.4) or (sample B) 0.76 mg DOX (mw 579.99) to give 152 ug/ml final drug and 5.1% loading in 5 ml final vol. Samples C, D were MTN, or DOX only controls at equivalent final [drug] without HSDNA. Sample E was HSDNA, no drug and sample F was H2O only. MCF-7 cells were trypsinized and plated out previously. Triplicate samples were diluted 0.1 ml in 0.2 ml 1× media to give 3× fold serial dilution in 0.2 ml final. After 16 hour incubation the cells were visually inspected for signs of toxicity. Toxicity was scored as the following: 50%=one half all cells rounded, un-adhered or crenated.

MCF7 = test: Toxicity of NAC-MTN vs CD-MTN and MTN, MTT (Example 9, EX042105); assay type: cell-based, human
Procedure: FIG. 4. […] The relative toxicity of NAC-MTN was compared with MTN and CD-MTN in four cell lines, MCF7(breast cancer), COS7green monkey kidney (SV40 transformed), 3T3 (mouse fibroblast), and BHK21(hamster kidney). Cells were treated with identical amounts of MTN formulated as either NAC-MTN, MTN only, or poly-beta-cyclodextrin-sulfylbutylether(CD-MTN). After an incubation period, cell viability was assayed with MTT assay. The differences in toxicity between NAC-MTN and MTN or NAC-MTN and CD-MTN are shown as % difference. Greater percentage difference correlates to more reduction in relative NAC-MTN toxicity.
MCF7, COS7, 3T3, and BHK21 cells were plated out in duplicate rows of equivalent cell density in 100ul final volume. Initial cell densities were 2000 cells/well.
Preparing NAC-MTN, CD-MTN, and MTN only. Combined 180 ul of 0.05 mg/ml MTN with […] 0.1 mg/ml herring sperm genomic DNA (HSGDNA, Promega), 1500 ul of 2× DMEM media containing 20% FBS to give 3.0 ml final volume and 12% final drug loading in the dsDNA. For MTN only, 180 ul of MTN was combined with 1320 ul H2O and 1500 ul 2× DMEM. […]
Aspirated media in plate and replaced with 50 ul of 0.5 mg/ml MTT in 1× media, incubated 3 hours, aspirated, air dried 5 min and dissolved in 100 ul of isopropyl, read OD at A570. […]

BHK21 = test: Effect of plating time on uptake of NAC-MTN and MTN, fluorescence (Example 11); assay type: cell-based, hamster
Procedure: The effect of plating time on the differential rates of uptake between NAC-MTN and MTN were assayed in cells treated <1 hour and 24 hours after plating.
On day 1, MCF7, COS7, 3T3, and BHK21 cells were plated out in a standard tissue culture plate. After incubation of 20 minutes samples were added to cells in rows A, C, E, and G. Cells were incubated at 37C in a standard atmosphere of 5%CO2.
On day 2, samples were added to rows D, F, and H and the fluorescence was obtained EX620/EM680 S=80. Samples were removed from A,C,E and G, replaced with media and fluorescence read again. On day 2 observed significant drug toxicity in cells of rows A,C, E, G. Sample addition was postponed in row B since MCF7 were not yet confluent.
On day 3, added samples to cells in row B containing confluent MCF7's, removed samples from rows D, F, and H replaced with media and read fluorescence.
Fluorescence data from cells taken after removal of media was used to quantitate total MTN retained in the cells. Fluorescence data were converted to mg/ml MTN using a standard curve prepared with free MTN or NAC-MTN.
The percentage difference in fluorescence between cells treated with NAC-MTN or MTN alone was used to compare relative drug uptake.
The MTN fluorescence ratios were obtained by dividing MTN fluorescence of cells incubated for 24 hours by fluorescence of cells incubated 30 minutes. […] The uptake in BHK21 was roughly equivalent for NAC-MTN regardless of plate adherence, however it should be noted that BHK21 adhere very rapidly to the plate.
Fluorescence data were converted to micromolar drug concentrations (uM MTN) using a standard curve for either nucleic acid bound or unbound drug, and drug uptake ratios were obtained by dividing the t(24 hour)/t(30 min.). The ratios of absolute drug concentration per well show more dramatic differences in uptake as shown below.

[1] = In vivo MTN distribution in organs and recovery in urine after multiple i.v. dosing (Example 16, EX102205)
Procedure: Differential targeting and distribution of NAC-MTN or MTN in major organs of the mouse. NAC-MTN or MTN was administered intravenously to mice and detected in major organs after 24 hours. […] Total MTN in tissues was quantified by MTN fluorescence, normalized against total tissue weight, and reported as MTN mg/g tissue.
Mice n=2, were injected i.v. with repeated dose of either NAC-MTN or MTN alone. MTN administered was the same for each mouse.
A 0.4 ml volume of each NAC-MTN or MTN formulation was prepared for injection in HBSS or H2O (Hanks Buffered Saline, Sigma-Aldrich) as indicated below. For NAC-MTN injection, 45 ul 10 mg/ml MTN was diluted first in 325 ul of HBSS solution, then 180 ul of herring sperm DNA (HSDNA, 50 mg/ml stock neutralized, 0.2 um filtered) was added to give a turquoise blue color. […] In MTN injection, 45 ul 10 mg/ml MTN was diluted in 385 ul of H2O.
On day 1, white mice, n=2, 24 g each, were tail vein injected by a micro-catheter with 0.16 ml at 14:50 or 0.15 ml at 15:30, respectively of either NAC-MTN or MTN. A second injection was followed at 17:00 and 16:50 of 0.2 ml each of NAC-MTN or MTN. To quantify total MTN retained, mouse urine was collected after 1st and 2nd injection. Total MTN was assayed in mouse urine immediately after 1st injection and second injection by reading MTN fluorescence 620/680 s=50 of a 0.2 ml sample in a styrene well, bottom read. […] A third dose of 0.2 ml was given the next morning, 22 hours after 1st injection (day 2), of either NAC-MTN or MTN. […] Twenty four hours after first injection (day 2), mice were sacrificed and MTN assayed in major organs. The liver, kidneys, heart, and lung were homogenized at high speed 50,000 rpm, and treated with 1% SDS (sodium dodecyl sulfate). The homogenates were frozen twice and centrifuged for 30 minutes at 14000 rcf.

[2] = three i.v. doses, 24 hours after first injection

## O=C1c2c(O)ccc(O)c2C(=O)c2c(NCCNCCO)ccc(NCCNCCO)c21 [MTN, mitoxantrone]
Human MCF-7 cells
  Toxicity (visual score): 90%
MCF7; 2 uM final MTN, MTT 48 hours after adding samples
  % tox. relative to media only: 48.39%
MCF7; after 24 hours, 2 uM MTN
  toxic effect: no toxic effect
BHK21
  MTN FLUOR Ratio of t(24)/t(<1): 0.73
BHK21; cells treated 24 hour after plating
  FLUOR (MTN fluorescence in cells): 10746
BHK21; cells treated <1 hour after plating
  FLUOR (MTN fluorescence in cells): 9557
BHK21; from standard curve for bound or unbound drug
  Ratio uM MTN of t(24)/t(<1): 1.2
[1]; Collect Time 0-2 hr
  MTN % dose recov. (urine): 2.9%
[1]; Collect Time 0-2 hr, dose 0.18 mg (NAC-MTN) or 0.17 mg (MTN) at 0 hr
  MTN Recov. (urine): 0.0049 mg
[1]; Collect Time 3-12 hr
  MTN % dose recov. (urine): 12%
[1]; Collect Time 3-12 hr, dose 0.225 mg at 3 hr
  MTN Recov. (urine): 0.0279 mg
[1]; Collect Time 12-24 hr
  MTN % dose recov. (urine): 13%
[1]; Collect Time 12-24 hr, dose 0.225 mg at 22 hr
  MTN Recov. (urine): 0.0297 mg
[1]; [2]
  MTN in Heart: 0.033 mg/g tissue
  MTN in Kidney: 0.26 mg/g tissue
  MTN in Liver: 0.077 mg/g tissue
  MTN in Lung: 0.027 mg/g tissue
[1]; three i.v. doses, 24 hours after first injection, listed as MTN only
  MTN in Kidney: 0.261 mg/g tissue
